Results published in publication PMC7948482, “Erythrocytes efficiently utilize exogenous sphingosines for S1P synthesis and export via Mfsd2b” (The Journal of Biological Chemistry, 2021).

Biological target: T1, Mfsd2b (Mus musculus, UniProt Q3T9M1)
T1 construct: full-length native transporter in isolated mouse erythrocytes; Mfsd2b knockout erythrocytes as control
T1 sequence (Q3T9M1 1-494): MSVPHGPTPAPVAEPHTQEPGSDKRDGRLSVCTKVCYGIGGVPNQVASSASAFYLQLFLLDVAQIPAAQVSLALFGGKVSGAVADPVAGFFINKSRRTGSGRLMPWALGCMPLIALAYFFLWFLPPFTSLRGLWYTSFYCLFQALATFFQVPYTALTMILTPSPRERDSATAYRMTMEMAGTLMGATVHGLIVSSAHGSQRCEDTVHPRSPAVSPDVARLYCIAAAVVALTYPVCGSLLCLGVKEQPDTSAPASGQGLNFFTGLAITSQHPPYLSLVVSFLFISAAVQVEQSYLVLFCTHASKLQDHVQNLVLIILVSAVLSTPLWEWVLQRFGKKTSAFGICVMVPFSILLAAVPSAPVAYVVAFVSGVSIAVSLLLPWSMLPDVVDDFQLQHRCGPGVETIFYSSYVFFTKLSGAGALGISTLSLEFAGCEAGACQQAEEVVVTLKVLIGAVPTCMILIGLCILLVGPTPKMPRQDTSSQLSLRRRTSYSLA
Test: [[…]-3H]-S1P export, WT versus Mfsd2b KO erythrocytes
Assay type: cell-based
Settings: S1P formed inside from [3-3H]-Sph; 0.5% BSA acceptor; pH 7.4; labelled compound

CCCCCCCCCCCCC/C=C/[C@@H](O)[C@@H](N)COP(=O)(O)O [S1P]
[3-3H]-S1P export, WT versus Mfsd2b KO erythrocytes: Mfsd2b KO erythrocytes showed a significant reduction of S1P transport
